Experiment [1] deals with V. parahaemolyticus lysogenized with phage VP882. Kind of experiment: Growth/lysis assay (OD600), VP882 lysogen. It is filed as cell-based. The note with it: for host cell lysis (OD600): wild-type VP882 lysogen, expression induced (ara or aTc) or MMC added. The protocol:
(§1) Growth, Lysis, and Reporter Assays. Typically, overnight cultures were back diluted 1:1000 into fresh medium with appropriate antibiotics and strains were grown to OD600 0.5-0.6. Cultures were back diluted 1:20, and grown to OD600 0.1, before being dispensed (200 μL) into 96 well plates (Corning Costar 3904). MMC, ara, or aTc was added as specified. […] Plates were shaken at 37° C. and a BioTek Synergy Neo2 Multi-Mode reader was used to measure OD600, OD600 and bioluminescence, or OD600 and fluorescence. […]. In the case of fluorescence assays, M9 supplemented with 0.4% casamino acids (BD-Difco) was used and readings were made by excitation at 588 nm and emission at 633 nm. The glycerol stocks were prepared from three independent colonies of each strain at a single OD600. Care was taken to ensure that the OD600 between these strains was identical prior to storage. Parallel cultures of the same strains were used for viral preparations.

Experiment [2] has as its system V. parahaemolyticus harboring phage VP882. Kind of experiment: Phage (virion) DNA isolation from culture fluids. It is filed as cell-based. The protocol:
Phage DNA Isolation. Phage DNA was purified from phage particles present in the supernatants of lysed cells (virion) and from host cell pellets lysogenized with VP882 (prophage). Prophage DNA was purified using the FosmidMAX kit (Lucigen) according to the manufacturer's protocol for 1.5 mL cultures. Virion DNA was isolated using a Phage DNA isolation kit (Norgen Biotek) including the DNase I and Proteinase K treatment steps indicated in the manufacturer's protocol.

For experiment [3], the system named is Pq-lux. Kind of experiment: Pq-lux reporter assay in V. parahaemolyticus. As to conditions: VP882 lysogen. The class given is cell-based. The protocol: as §1
For orientation: Reporter assays use an easily measured gene product as a stand-in for the process of interest.

A further experiment relates to Pgp69-lux. Kind of experiment: Pgp69-lux reporter assay in V. parahaemolyticus lysogen. It is filed as cell-based. The note with it: VP882 lysogen. The method, then: as §1
The test system of experiment [4] is Pq-lux. Put plainly: Pq-lux reporter assay in recombinant E. coli. It is filed as cell-based. The protocol:
as §1

The subject of another experiment is phage VP882 cI. Kind of experiment: Confocal microscopy of HALO-cI localization (VP882 cI). It is filed as cell-based. The note with it: single-cell level in E. coli. The protocol: (§2) Confocal Microscopy. Overnight cultures, started from single colonies of E. coli (T7Express) carrying HALO and/or SNAP fusions (see Table 2) were back-diluted 1:1000, and grown at 37° C. to OD600˜0.2. Either MMC, aTc, or ethanol in water was added. The so-treated samples were returned to shaking at 37° C. for an additional 60 min prior to live-cell staining and imaging. Live-cell staining was performed using a protocol adapted from (Ke et al., 2016). Briefly, HALO-TMR was added to each sample at 10 μM. The samples were incubated in the dark for 15-20 min at 37° C. The cells were pelleted at 13,000 g×1 min, washed twice with M9 medium, and resuspended in 50-150 μL of fresh M9 medium. 5-10 μL of each sample was spotted onto a glass coverslip and overlaid with a small amount of M9-agar. The samples were imaged on a Leica SP8 Confocal microscope. HALO-TMR was excited with 561 nm light and detected within a range of 579-622 nm. For SNAP-Qtip co-localization experiments, the SNAP-specific dye JF503 (Grimm et al., 2017) was added at 10 μM at the same time as the HALO-TMR reagent was added. SNAP was visualized by excitation at 504 nm and detection within 516-540 nm. All images were acquired under the same conditions (laser power and gain) in LASX (Leica Microsystems). Images were imported into Fiji for processing, which consisted solely of adjusting brightness and contrast (min-max).

The subject of another experiment is HIS-HALO-Gp59. Put plainly: Western blot to assess HIS-HALO-Gp59 cleavage. It is filed as cell-based, E. coli. (A western blot detects proteins with antibodies after separation by electrophoresis.)
Experiment [5] relates to V. cholerae carrying the VP882 prophage. Put plainly: Growth/lysis assay (OD600), V. cholerae carrying VP882. It is filed as cell-based. The method, then: as §1
Experiment [6] concerns phage VP882 vqmAPhage::Tn5 in V. cholerae. Kind of experiment: Viral load by quantitative PCR of viral preparations. It is filed as cell-based. The protocol: qPCR and Viral Preparations. Viral preparations consisted of purified non-chromosomal DNA (ZR BAC kit, Zymo Research) prepared from 2 mL of cells. Following addition of the indicated compounds or water control, the cultures were returned to growth for 3 h prior to harvesting. This alteration in procedure was necessary to enable growth of sufficient cells for use with the viral preparation kit. 0.5 ng of purified non-chromosomal DNA was used for each qPCR reaction. qPCR reactions were performed as described above for qRT-PCR reactions. Data were analyzed by a comparative CT method in which the VP882 phage-specific primer set (JSO-1399×1400) was normalized to the non-phage plasmid-specific primer set (JSO-1401×1402). The reference sample for each comparison was the isogenic strain (Δtdh or WT) that was not induced.

Experiment [7] deals with E. coli, V. cholerae, and V. parahaemolyticus. Put plainly: Generalized DPO-based phage kill switch growth/lysis assay (FIG. 4). It is filed as cell-based. As to conditions: arabinose plus DPO (50 μM synthetic DPO per FIG. 4 legend). The method, then:
FIG. 4 is a graph showing the growth of E. coli, V. cholerae, and V. parahaemolyticus strains lysogenized with the generalized DPO-based phage kill switch in minimal medium lacking (black bars) or containing (white bars) 50 μM synthetic DPO to induce lysis, where all media contained arabinose.
as §1

The test system of the next experiment is cI. Kind of experiment: Co-immunoprecipitation of HALO-cI with HIS-Gp55. The class given is binding, phage VP882. As to conditions: combined E. coli lysates.
Another experiment relates to HALO-cI from MJ1. Kind of experiment: Confocal microscopy of HALO-cI localization (MJ1 cI). It is filed as cell-based, phage MJ1. The note with it: co-expression in E. coli. The protocol:
as §2

The subject of experiment [8] is HALO-cI repressor from vibriophage VP58.5. Kind of experiment: Confocal microscopy of HALO-cI localization (VP58.5 cI). The class given is cell-based. The note with it: co-expression in E. coli. The method, then:
as §2

The test system of a further experiment is lambda HALO-cI. Put plainly: Confocal microscopy of HALO-cI localization (lambda cI). The note with it: co-expression in E. coli. The class given is cell-based. The method, then:
as §2

[9] abbreviates: synthetic DPO supplied to WT and Δtdh strains, vqmAPhage induced.
Where [10] appears, read: WT and Δtdh strains, qtip from inducible promoter or MMC.

As for `CO[C@@]12[C@H](COC(N)=O)C3=C(C(=O)C(C)=C(N)C3=O)N1C[C@@H]1N[C@@H]12` [MMC, mitomycin C], the host cell lysis entry is recorded as “do not” in [1] (VP882 phage harboring gp62::Tn5) and “lyse” in [1] (VP882 phage with a Tn5 in vqmAPhage). Moreover, the “release of VP882 phage DNA into culture fluids” value in experiment [2] was “VP882 phage DNA could be purified”. In the experiment with Pq-lux [3], the “light production from Pq-lux” value was “rapidly increased”. For the same molecule, the “light production from Pgp69-lux” value in the experiment on Pgp69-lux is listed as “rapidly increased”. The “offset between activation of Pq-lux and activation of Pgp69-lux” value in the experiment with Pgp69-lux came out at 10 min. The Pq-lux light production result in the experiment on Pq-lux [4] (recA+ E. coli carrying Pq-lux and HIS-HALO-Gp59) was “significant increase in light production”; with Pq-lux [4] (ΔrecA E. coli carrying Pq-lux and HIS-HALO-Gp59), “no effect”. In addition, the “cI localization (VP882 HALO-cI)” value in the experiment with phage VP882 cI was “remained diffuse”. Also, the “HIS-HALO-Gp59 bands on Western blot” value with HIS-HALO-Gp59 (recA+ E. coli, MMC-treated) is “lower-molecular-weight bands, presumably cleavage products”. Besides, the “HIS-HALO-Gp59 protein on Western blot” value in the experiment with HIS-HALO-Gp59 (ΔrecA E. coli, MMC treatment) was “unaffected”.
As to `Cc1cnc(O)c(C)n1` [DPO, 3,5-dimethylpyrazine-2-ol], the host cell lysis entry was “no lysis” in experiment [1] (minimal medium lacking threonine, DPO added in the absence of induction of VqmAPhage) and “maximal host cell lysis” in experiment [1] (minimal medium lacking threonine, vqmAPhage induced with 0.2% ara, DPO 10 μM). For the same molecule, the “additional lysis with exogenous DPO versus endogenously-produced DPO only” value in [5] (WT strain) stood at 25%. Further, the lysis entry was “lysis occurred” in experiment [5] (setting [9]) and “maximal lysis” in experiment [7]. Moreover, the “additional increase in viral load with exogenous DPO versus endogenous DPO only” value in experiment [6] (WT strain) is 35%. In addition, the viral load entry in experiment [6] (setting [9]) is on record as “increased in both strains to similar extents”.

B1: Qtip (protein, listed as Vibrio cholerae)
chain: MCDFCSEHIDSLDALQSSLEKGTAIIELLDTALSAGIEVSPRVVSCALSAAHQHLQVSEKINRSLQIGCGSKEVLRLVD
For the molecule B1, the “host cell lysis (OD600)” value in experiment [1] was “host cell lysis comparable to when MMC was added or vqmAPhage was induced”. In addition, in the experiment with Pq-lux [4] (combined reporter plasmid (inducible vqmAPhage, Pq-lux, cI), pTetA-gp55 induced), the Pq-lux activity result is listed as “sufficient to generate Pq-lux activity”. In addition, the lysis entry in experiment [5] (setting [10]) is given as “Near-complete lysis”. In addition, in experiment [6] (setting [10]), the viral production result is given as “increased viral production”. In the experiment with cI, the “binding of cI during purification of HIS-Gp55” value is given as “cI binds to Gp55”. Moreover, the “cI localization (VP882 HALO-cI)” value in the experiment with phage VP882 cI is reported as “foci located primarily at the cell poles”. Moreover, the “cI aggregation (MJ1 HALO-cI)” value in the experiment on HALO-cI from MJ1 was “resulted in foci”. Further, the “cI aggregation (VP58.5 HALO-cI)” value in experiment [8] was “Aggregation also occurred”. For the same molecule, the “cI aggregation (lambda HALO-cI)” value in the experiment with lambda HALO-cI was “No aggregation occurred”.

B2: ORF584 (protein, listed as Vibrio cholerae)
chain: MDLRVSNAKDLLDKFEEKAVQMESISQLLANAPEDLTLATVQGSLSALASIARDAGEAADRLRTISSAEG
As to B2, the “host cell lysis (OD600)” value in experiment [1] was “lysis”. Also, the “phage VP882 Pq expression” value in the experiment with Pq-lux [4] (orf584 induced, host per Table 2) is “de-repression”. The “cI localization (VP882 HALO-cI)” value is “stripe of cI localization along the length of the cell” with phage VP882 cI and “caused aggregation” with phage VP882 cI (listed as orf584). Further, the “cI aggregation (MJ1 HALO-cI)” value in the experiment with HALO-cI from MJ1 was “caused aggregation”. For the same molecule, the “cI aggregation (lambda HALO-cI)” value in the experiment on lambda HALO-cI is reported as “not”.

The values are drawn from US12209256B2, “System for protein inactivation and recombinant phages for targeted bacterial killing, infection, biodetection, and as a means of protein extraction” (priority 2018, dated 2025).
